In ChEMBL document CHEMBL3621142, “Discovery and Evaluation of Clinical Candidate AZD3759, a Potent, Oral Active, Central Nervous System-Penetrant, Epidermal Growth Factor Receptor Tyrosine Kinase Inhibitor” (J Med Chem, 2015):

Test system: MDR1 (P-gp)
Test: Efflux ratio of permeability from basolateral to apical side over apical to basolateral side in MDCK2-MDR1 cells
Assay type: ADME, cell-based, Canis lupus familiaris
Conditions: dog, MDCK-MDR1

SMILES	efflux ratio
CN(C)C/C=C/C(=O)Nc1cc2c(Nc3ccc(F)c(Cl)c3)ncnc2cc1O[C@H]1CCOC1 [AFATINIB]	11
COc1cc2ncnc(Nc3ccc(F)c(Cl)c3)c2cc1N1CCOCC1	0.18
COc1cc2ncnc(Nc3cccc(Cl)c3F)c2cc1OC(=O)N1C[C@@H]2C[C@H]1CN2C	0.39
COc1cc2ncnc(Nc3cccc(Cl)c3F)c2cc1OC(=O)N1CCN(C)[C@@H](C)C1	1.5

Test system: BCRP
Test: Permeability from apical to basolateral side in BCRP transfected MDCK2 cells
Assay type: ADME, cell-based, Canis lupus familiaris, MDCK-II
Conditions: dog

SMILES	Papp A→B
CN(C)C/C=C/C(=O)Nc1cc2c(Nc3ccc(F)c(Cl)c3)ncnc2cc1O[C@H]1CCOC1 [AFATINIB]	13 nm/s

Test system: not listed separately
Test: Fraction unbound in Han Wistar rat blood at 5 uM by equilibrium dialysis method
Assay type: ADME, tissue-based
Conditions: Han Wistar

SMILES	fraction unbound at 5 µM
CN(C)C/C=C/C(=O)Nc1cc2c(Nc3ccc(F)c(Cl)c3)ncnc2cc1O[C@H]1CCOC1 [AFATINIB]	0.041
COc1cc2ncnc(Nc3ccc(F)c(Cl)c3)c2cc1N1CCOCC1	0.022
COc1cc2ncnc(Nc3cccc(Cl)c3F)c2cc1OC(=O)N1C[C@@H]2C[C@H]1CN2C	0.134
COc1cc2ncnc(Nc3cccc(Cl)c3F)c2cc1OC(=O)N1CCN(C)[C@@H](C)C1	0.035

Test system: not listed separately
Test: Fraction unbound in Han Wistar rat brain at 5 uM by equilibrium dialysis method
Assay type: ADME, tissue-based
Conditions: Han Wistar, brain

SMILES	fraction unbound at 5 µM
CN(C)C/C=C/C(=O)Nc1cc2c(Nc3ccc(F)c(Cl)c3)ncnc2cc1O[C@H]1CCOC1 [AFATINIB]	0.0054
COc1cc2ncnc(Nc3ccc(F)c(Cl)c3)c2cc1N1CCOCC1	0.0083
COc1cc2ncnc(Nc3cccc(Cl)c3F)c2cc1OC(=O)N1C[C@@H]2C[C@H]1CN2C	0.016
COc1cc2ncnc(Nc3cccc(Cl)c3F)c2cc1OC(=O)N1CCN(C)[C@@H](C)C1	0.016

Test system: not listed separately
Test: Ratio of unbound AUC (0 to 24 hrs) in brain to blood of Han Wistar rat at 20 mg/kg, po by LC-MS/MS analysis
Assay type: ADME, organism-based
Conditions: brain and blood, read-out: K(p,uu,brain)

SMILES	Kp uu
CN(C)C/C=C/C(=O)Nc1cc2c(Nc3ccc(F)c(Cl)c3)ncnc2cc1O[C@H]1CCOC1 [AFATINIB]	0.0066

Test system: not listed separately
Test: Ratio of unbound AUC (0 to 24 hrs) in CSF to blood of Han Wistar rat at 20 mg/kg, po by LC-MS/MS analysis
Assay type: ADME, organism-based
Conditions: CSF and blood

SMILES	Kp uu
CN(C)C/C=C/C(=O)Nc1cc2c(Nc3ccc(F)c(Cl)c3)ncnc2cc1O[C@H]1CCOC1 [AFATINIB]	0.27

Test system: not listed separately
Test: Oral bioavailability in Han Wistar rat at 2 mg/kg
Assay type: ADME, organism-based
Conditions: Han Wistar, in vivo

SMILES	bioavailability
COc1cc2ncnc(Nc3cccc(Cl)c3F)c2cc1OC(=O)N1CCN(C)[C@@H](C)C1	24%

Target: Epidermal growth factor receptor (Homo sapiens, UniProt P00533, L858R)
Sequence (P00533 25-1210 L858R limits assumed): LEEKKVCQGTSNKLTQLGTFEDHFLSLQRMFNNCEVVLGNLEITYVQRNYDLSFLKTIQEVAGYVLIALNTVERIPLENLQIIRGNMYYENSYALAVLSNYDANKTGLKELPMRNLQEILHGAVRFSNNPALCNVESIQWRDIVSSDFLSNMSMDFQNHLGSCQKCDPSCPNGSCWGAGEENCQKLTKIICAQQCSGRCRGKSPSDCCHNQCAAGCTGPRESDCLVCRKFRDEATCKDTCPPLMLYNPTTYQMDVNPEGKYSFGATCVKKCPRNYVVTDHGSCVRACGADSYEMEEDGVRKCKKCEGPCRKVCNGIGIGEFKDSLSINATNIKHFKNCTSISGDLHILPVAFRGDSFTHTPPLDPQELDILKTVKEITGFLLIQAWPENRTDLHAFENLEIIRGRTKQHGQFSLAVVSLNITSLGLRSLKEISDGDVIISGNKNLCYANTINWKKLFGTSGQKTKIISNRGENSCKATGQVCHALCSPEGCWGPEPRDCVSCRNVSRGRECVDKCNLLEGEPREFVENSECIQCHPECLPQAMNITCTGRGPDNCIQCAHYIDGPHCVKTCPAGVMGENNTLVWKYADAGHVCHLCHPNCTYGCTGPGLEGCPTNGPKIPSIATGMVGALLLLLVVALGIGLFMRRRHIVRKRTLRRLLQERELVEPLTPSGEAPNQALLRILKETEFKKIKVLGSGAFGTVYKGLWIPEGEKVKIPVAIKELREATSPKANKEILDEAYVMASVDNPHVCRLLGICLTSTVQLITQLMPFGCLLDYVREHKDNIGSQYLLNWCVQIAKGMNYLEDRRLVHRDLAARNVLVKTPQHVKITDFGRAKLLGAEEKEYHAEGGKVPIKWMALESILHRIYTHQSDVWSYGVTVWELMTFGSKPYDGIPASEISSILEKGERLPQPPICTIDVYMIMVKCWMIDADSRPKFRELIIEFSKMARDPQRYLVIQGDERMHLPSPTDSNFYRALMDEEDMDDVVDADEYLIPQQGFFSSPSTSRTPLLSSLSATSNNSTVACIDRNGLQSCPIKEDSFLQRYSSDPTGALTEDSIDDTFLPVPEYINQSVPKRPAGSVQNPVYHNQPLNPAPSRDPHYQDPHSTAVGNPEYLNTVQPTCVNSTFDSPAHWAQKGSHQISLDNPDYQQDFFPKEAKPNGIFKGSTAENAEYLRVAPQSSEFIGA
Test: not given
Assay type: cell-based, H3255
Conditions: not given

SMILES	IC50
COc1cc2ncnc(Nc3ccc(F)c(Cl)c3)c2cc1N1CCOCC1	1.5 nM
COc1cc2ncnc(Nc3cccc(Cl)c3F)c2cc1OC(=O)N1C[C@@H]2C[C@H]1CN2C	2.3 nM
COc1cc2ncnc(Nc3cccc(Cl)c3F)c2cc1OC(=O)N1CCN(C)[C@@H](C)C1	16.9 nM

Test system: not listed separately
Test: AUC (0 to 7 hrs) in Han Wistar rat brain at 2 mg/kg, po by LC-MS/MS analysis
Assay type: ADME, organism-based
Set-up: dose 2 mg/kg, time < 7 hr, route oral
Conditions: Han Wistar, brain

SMILES	AUC(0-t) at 7 h
COc1cc2ncnc(Nc3ccc(F)c(Cl)c3)c2cc1N1CCOCC1	85 nM·h
COc1cc2ncnc(Nc3cccc(Cl)c3F)c2cc1OC(=O)N1C[C@@H]2C[C@H]1CN2C	332 nM·h
COc1cc2ncnc(Nc3cccc(Cl)c3F)c2cc1OC(=O)N1CCN(C)[C@@H](C)C1	278 nM·h

Test system: not listed separately
Test: (§1) AUC (0 to 7 hrs) in Han Wistar rat CSF at 2 mg/kg, po by LC-MS/MS analysis
Assay type: ADME, organism-based, Cerebrospinal fluid
Set-up: time < 7 hr, dose 2 mg/kg, route oral
Conditions: Han Wistar, CSF

SMILES	AUC(0-t) at 7 h
COc1cc2ncnc(Nc3ccc(F)c(Cl)c3)c2cc1N1CCOCC1	1 nM·h
COc1cc2ncnc(Nc3cccc(Cl)c3F)c2cc1OC(=O)N1CCN(C)[C@@H](C)C1	19 nM·h

Test system: Cerebrospinal fluid
Test: as §1
Assay type: ADME, organism-based
Set-up: time < 7 hr, dose 2 mg/kg, route oral
Conditions: in vivo, 7 h, BLD = below limit of detection

SMILES	AUC
COc1cc2ncnc(Nc3cccc(Cl)c3F)c2cc1OC(=O)N1C[C@@H]2C[C@H]1CN2C	BLD

Test system: not listed separately
Test: AUC (0 to 7 hrs) in Han Wistar rat blood at 2 mg/kg, po by LC-MS/MS analysis
Assay type: ADME, organism-based
Set-up: dose 2 mg/kg, time < 7 hr, route oral
Conditions: Han Wistar, blood

SMILES	AUC(0-t) at 7 h
COc1cc2ncnc(Nc3ccc(F)c(Cl)c3)c2cc1N1CCOCC1	77 nM·h
COc1cc2ncnc(Nc3cccc(Cl)c3F)c2cc1OC(=O)N1C[C@@H]2C[C@H]1CN2C	454 nM·h
COc1cc2ncnc(Nc3cccc(Cl)c3F)c2cc1OC(=O)N1CCN(C)[C@@H](C)C1	157 nM·h

Test system: not listed separately
Test: Ratio of unbound AUC (0 to 7 hrs) in brain to blood of Han Wistar rat at 2 mg/kg, po by LC-MS/MS analysis
Assay type: ADME, organism-based
Conditions: Han Wistar, brain and blood, read-out: K(p,uu,brain)

SMILES	Kp uu
COc1cc2ncnc(Nc3ccc(F)c(Cl)c3)c2cc1N1CCOCC1	0.42
COc1cc2ncnc(Nc3cccc(Cl)c3F)c2cc1OC(=O)N1C[C@@H]2C[C@H]1CN2C	0.086
COc1cc2ncnc(Nc3cccc(Cl)c3F)c2cc1OC(=O)N1CCN(C)[C@@H](C)C1	0.84

Test system: not listed separately
Test: Ratio of unbound AUC (0 to 7 hrs) in CSF to blood of Han Wistar rat at 2 mg/kg, po by LC-MS/MS analysis
Assay type: ADME, organism-based
Conditions: Han Wistar, CSF and blood

SMILES	Kp uu
COc1cc2ncnc(Nc3ccc(F)c(Cl)c3)c2cc1N1CCOCC1	0.79
COc1cc2ncnc(Nc3cccc(Cl)c3F)c2cc1OC(=O)N1CCN(C)[C@@H](C)C1	3.5

Same assay, conditions: csf, BLD = below limit of detection

SMILES	K(p,uu,CSF)
COc1cc2ncnc(Nc3cccc(Cl)c3F)c2cc1OC(=O)N1C[C@@H]2C[C@H]1CN2C	BLD

Test system: not listed separately
Test: Elimination half life in Han Wistar rat at 1 mg/kg, iv
Assay type: ADME, organism-based
Conditions: Han Wistar, in vivo, read-out: beta t1/2 (converted)

SMILES	half-life
COc1cc2ncnc(Nc3cccc(Cl)c3F)c2cc1OC(=O)N1CCN(C)[C@@H](C)C1	1.1 h

Test system: not listed separately
Test: Clearance in Han Wistar rat at 1 mg/kg, iv
Assay type: ADME, organism-based
Conditions: in vivo

SMILES	clearance
COc1cc2ncnc(Nc3cccc(Cl)c3F)c2cc1OC(=O)N1CCN(C)[C@@H](C)C1	1.56 L/h/kg

Test system: not listed separately
Test: Volume of distribution at steady state in Han Wistar rat at 1 mg/kg, iv
Assay type: ADME, organism-based
Conditions: Han Wistar, in vivo, read-out: Vdss

SMILES	Vd
COc1cc2ncnc(Nc3cccc(Cl)c3F)c2cc1OC(=O)N1CCN(C)[C@@H](C)C1	1.9 L/kg

Test system: not listed separately
Test: AUC(0 to 24 hrs) in Han Wistar rat at 2 mg/kg, po
Assay type: ADME, organism-based
Set-up: dose 2 mg/kg, time < 24 hr, route oral
Conditions: Han Wistar, in vivo

SMILES	AUC(0-t) at 24 h
COc1cc2ncnc(Nc3cccc(Cl)c3F)c2cc1OC(=O)N1CCN(C)[C@@H](C)C1	789 nM·h

Test system: not listed separately
Test: Permeability from apical to basolateral side in MDCK2-MDR1 cells
Assay type: ADME, cell-based, Canis lupus familiaris, MDCK-II
Conditions: dog, MDCK-MDR1

SMILES	Papp A→B
CN(C)C/C=C/C(=O)Nc1cc2c(Nc3ccc(F)c(Cl)c3)ncnc2cc1O[C@H]1CCOC1 [AFATINIB]	25 nm/s
COc1cc2ncnc(Nc3ccc(F)c(Cl)c3)c2cc1N1CCOCC1	290 nm/s
COc1cc2ncnc(Nc3cccc(Cl)c3F)c2cc1OC(=O)N1C[C@@H]2C[C@H]1CN2C	140 nm/s
COc1cc2ncnc(Nc3cccc(Cl)c3F)c2cc1OC(=O)N1CCN(C)[C@@H](C)C1	590 nm/s

Test system: BCRP
Test: in vitro
Conditions: dog
Description: Efflux ratio of permeability from basolateral to apical side over apical to basolateral side in BCRP transfected MDCK2 cells

SMILES	efflux ratio
CN(C)C/C=C/C(=O)Nc1cc2c(Nc3ccc(F)c(Cl)c3)ncnc2cc1O[C@H]1CCOC1 [AFATINIB]	59
